Data reported in patent US20230041065A1, “METHODS FOR GENERATING HEMATOPOIETIC STEM CELLS” (The Brigham and Women`s Hospital, Inc., priority 2019, published 2023).
“Also recorded” adds a separate entry of the source.

Experiments:
[1] = system: human PSC (DF19-9-7T)-derived hCD34+ hematopoietic cells; assay: Transplantation of human PSC-derived hCD34+ hematopoietic cells in humanized mice; type: in vivo
[2] = system: E11.5 AGM-derived HSCs; assay: Serial transplantation of E11.5 AGM-derived HSCs into irradiated mice; type: in vivo, mouse
Description: Pulsating blood vessels like conditions were stimulated in vitro using Flexcell FX-4000 machine. To analyze roles of pharmacological targets in regulating the endothelial-to-HSC transition, mouse embryo-derived AGM or whole mouse embryo were exposed ex vivo with biomechanical stretching, chemicals, or drugs. Next, hematopoietic colony formation assays were performed by incubating mouse AGM-derived cells in StemCell M3434 media for seven days. Serial transplantation of AGM-derived HSCs in lethally irradiated SJL mice were performed. The stem cell frequency upon biomechanical stretching was analyzed using a limiting dilution assay. To characterize properties of AGM-HSC-derived blood cells in primary transplants, percentage chimerism and reconstitution was measured using FACS, globin transcripts were analyzed using quantitative reverse transcriptase-PCR, myeloperoxidase amount was measured using PicoKine ELISA kit, TCR-β rearrangement was analyzed using PCR for TCR-β locus, pre-immune IG detection was analyzed using Thermo-Fisher Mouse Ig Isotyping kit, and delayed-type hypersensitivity was analyzed by injecting sheep RBC (Rockland Immunochemicals) in the footpad of pre-sensitized mice.
For primary transplantation, three-embryo equivalents of untreated or treated (cyclic strain or 25 μM Yoda1) AGMs plus splenic helper cells (˜500,000 per mouse) were injected into lethally irradiated (split dose […]) Cd45.1 (SJL) mice by retro-orbital injection. For secondary and tertiary transplants, the bone marrow was isolated (legs, arm, pelvic bone, spine, sternum) from the transplanted mice. The bone marrow was loaded on a Ficoll gradient (Histopaque®-1083, Sigma-Aldrich), and the cells from the buffy coat incubated with biotin-conjugated lineage antibodies and streptavidin microbeads (Miltenyi Biotec). Next, the lineage negative (Lin^−) cells were separated with MACS LS Columns (Miltenyi Biotec), and the donor Cd45.2 Lin^−Sca1+c-Kit^+ (LSK) cells sorted with a MoFlo Beckman Coulter sorter. Subsequently, the sorted Cd45.2 LSK cells were mixed with Cd45.1 splenic helper cells (˜500,000 per mouse) and transplanted into Cd45.1 irradiated (split dose […]) SJL mice by retro-orbital injection.
AGM cells from explants and ex vivo were stained with Sca1-Pacific-Blue (E13-161.7, Biolegend) and Flk1-APC-Cy7 (Avas 12α1, BD). Blood from transplanted mice was stained with the following antibody cocktail: Cd45.2-Pacific-Blue (104, Biolegend), Cd45.1-FITC (A20, Biolegend), Cd3-PE (145-2C11, Biolegend), Cd8-PE (53-6.7, Biolegend), Mac1-APC (M1/70, Biolegend), Gr1-APC (108412, Biolegend), Cd19-APC-CY7(6D5, Biolegend), B220-APC-CY7 (RA3-6B2, Biolegend). […]

[3] = system: Dnmt3a; assay: Dnmt3a protein level in nuclear fractions of E11.5 AGM cells; type: cell-based, mouse
Description: RNA-sequencing analyses were performed to measure gene expression patterns in mouse AGM treated with cyclic strain or pharmacological modulators. Using computational algorithms, hierarchical clustering was performed of differentially expressed genes as well as measured their overrepresented biological processes and pathways. Gene expression clusters of differentially expressed genes were analyzed and their mean expression level across cell populations compared. Next, Venn comparison of up- and down-genes was constructed to analyze candidate(s) important for cyclic strain- or pharmacological modulator(s)-mediated the endothelial-to-HSC transition. Furthermore, Dnmt3b and Dnmt3a protein expressions were analyzed in nuclear fractions of mouse AGM cells using EqiQuick assay kits. Data are presented as mean±s.d. unless otherwise noted. Statistical analyses were performed by paired or un-paired Student's t-tests. Significance was set at P<0.05.
Nuclear extracts from AGM explants were harvested using an EpiQuik Nuclear Extraction Kit (Epigentek Group Inc.). Dnmt3b and Dnmt3a protein levels were analyzed using a colorimetric EpiQuik Assay Kit (Epigentek Group Inc.), according to the manufacturer's instructions. Concentration of Dnmt3b and Dnmt3a is relative to 1 μg of nuclear extract proteins.

SMILES: Clc1cccc(Cl)c1CSc1nnc(-c2cnccn2)s1 [Yoda1, 2-[5-[[(2,6-Dichlorophenyl)methyl]thio]-1,3,4-thiadiazol-2-yl]-pyrazine]
- percentage of bone marrow reconstitution to human CD33+, CD3+ and CD19+ cells ([1]; primary transplant): stimulates the formation of hCD34+ hematopoietic cells that reconstitute multi-lineage blood
- percentage of bone marrow chimerism ([1]; primary transplant, after 8-10 weeks): enhances the formation of engraftable human CD34+ cells; also recorded: enhances the formation of engraftable hCD34+ cells
- percentage peripheral blood reconstitution to human CD33+, CD3+ and CD19+ cells ([1]; secondary transplant): stimulates the formation of human LT-HSCs that reconstitute multi-lineage blood upon serial transplantation
- percentage of peripheral blood chimerism ([1]; secondary transplant, after 16 weeks): enhances the formation of self-renewing LT-HSCs
- percentage reconstitution to myeloid cells, T-cells and B-cells ([2]; primary transplant, week 16): stimulates the formation of HSCs that reconstitute to the blood
- percentage peripheral blood chimerism ([2]; primary transplant, weeks 8-16, treated E11.5 AGM donor cells): stimulates the formation of HSCs
- percentage reconstitution to myeloid cells, T-cells and B-cells ([2]; secondary transplant, week 12): produces HSCs that can serially reconstitute to the blood
- percentage peripheral blood chimerism ([2]; secondary transplant, weeks 8-12): produces HSCs that have serial engraftment and self-renewal capacities
- Dnmt3a protein expression [3]: not Dnmt3a; also recorded: without impacting the expression of Dnmt3a
